Measurements: patent US10124004B2, “Pyrido[3,4-d]pyrimidine derivative and pharmaceutically acceptable salt thereof” (Teijin Pharma Limited, priority 2015, dated 2018)
Where two headings read alike, the source gives them in different places.

What was measured:
CDK4/cyclin D3 = molecular target: T1, CDK4/cyclin D3 (Homo sapiens, UniProt P11802); assay: Human CDK4/cyclin D3 inhibitory activity (QS S Assist CDK4/Cyclin D3_FP Kit, IMAP fluorescence polarization); type: biochemical
T1 construct: purchased Carna Biosciences, Inc. QS S Assist CDK4/Cyclin D3_FP Kit
Summary of the method: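 IMAP fluorescence-polarization kinase assay with kit ATP/substrate/metal mix and 12.5 to 25 ng/well enzyme in 20 mM HEPES pH 7.4, 0.01% Tween20, 2 mM DTT. Reaction ran 45 min at room temperature, then binding reagent was added for 30 min in the dark. IC50 was taken from dose-response fits of percent inhibition.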

CDK2/cyclin A2 = molecular target: T2, CDK2/cyclin A2 (Homo sapiens, UniProt P24941); assay: Human CDK2/cyclin A2 inhibitory activity (QS S Assist CDK2/Cyclin A2_FP Kit, IMAP fluorescence polarization); type: biochemical
T2 construct: purchased Carna Biosciences, Inc. QS S Assist CDK2/Cyclin A2_FP Kit
Experimental: Human CDK2/Cyclin A^2 Inhibitory Activity
Each compound was analyzed for CDK2/cyclin A2 inhibitory activity with an assay kit (QS S Assist CDK2/Cyclin A2_FP Kit, available from Carna Biosciences, Inc.). This assay kit determines kinase activity on the basis of the IMAP technology by Molecular Devices. Specifically, the kinase activity is determined through quantification of a variation in fluorescent polarization caused by binding of a kinase-phosphorylated fluorescent substance to an IMAP-binding reagent.
An assay buffer was prepared by 10-fold dilution of the 10× assay buffer attached to the kit with distilled water, and each solution was prepared with the assay buffer. The assay buffer contained 20 mM HEPES (pH 7.4), 0.01% Tween 20, and 2 mM dithiothreitol. A test compound solution was prepared by dilution of the test compound with dimethyl sulfoxide (DMSO) to a concentration 100 times higher than the final concentration and then 25-fold dilution with the assay buffer to a concentration four times higher than the final concentration. An ATP/substrate/Metal solution was prepared by five-fold dilution of the 5×ATP/substrate/Metal solution attached to the kit with the assay buffer. An enzyme solution was prepared by dilution of the CDK2/cyclin A2 attached to the kit with the assay buffer to a concentration twice higher than the final concentration (final concentration of CDK2/cyclin A2: 2.5 ng/well). A detection reagent was prepared by five-fold dilution of 5×IMAP-binding buffer A with distilled water and 400-fold dilution of the IMAP-binding reagent with the diluted buffer.
The test compound solution (5 μL/well) and the ATP/substrate/Metal solution (5 μL/well) were added to a 384-well plate, and the enzyme solution or the assay buffer (10 μL/well) was added to the plate (total amount of the reaction mixture: 20 μL/well) for initiation of enzymatic reaction. […] The reaction was performed at room temperature for 60 minutes, and the detection reagent (60 μL/well) was then added to the plate, followed by further reaction for 30 minutes at room temperature under light shielding conditions. Subsequently, fluorescent polarization was determined with a microplate reader at an excitation wavelength of 485 nm and an emission wavelength of 535 nm.
The percent inhibition of enzyme activity was calculated for each test compound (note: enzyme activity=100% in the case of addition of the enzyme solution and addition of DMSO instead of the test compound solution, whereas enzyme activity=0% in the case of addition of the assay buffer instead of the enzyme solution and addition of DMSO instead of the test compound solution). The percent inhibition of enzyme activity was fitted to a dose-response curve, to determine a 50% inhibitory concentration against CDK2/cyclin A2.
In each table, “+++” corresponds to IC50<10 nM, “++” 10 nM≤IC50<100 nM, and “+” 100 nM≤IC50.

[1] = Human CDK4/cyclin D3 inhibitory activity, read-out: CDK4 Activity symbol
[2] = 50% inhibitory concentration against CDK4/cyclin D3, given as class symbol
[3] = 50% inhibitory concentration against CDK2/cyclin A2, given as class symbol

T1 sequence (P11802 whole entry): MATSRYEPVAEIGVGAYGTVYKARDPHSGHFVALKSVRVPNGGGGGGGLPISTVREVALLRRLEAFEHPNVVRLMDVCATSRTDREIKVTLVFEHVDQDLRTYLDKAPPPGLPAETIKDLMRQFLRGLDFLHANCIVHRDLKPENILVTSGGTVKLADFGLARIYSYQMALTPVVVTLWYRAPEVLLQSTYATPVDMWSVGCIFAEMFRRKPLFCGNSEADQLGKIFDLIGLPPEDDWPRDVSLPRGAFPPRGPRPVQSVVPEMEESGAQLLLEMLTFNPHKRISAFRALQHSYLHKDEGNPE
T1 sequence (P30281 whole entry partner): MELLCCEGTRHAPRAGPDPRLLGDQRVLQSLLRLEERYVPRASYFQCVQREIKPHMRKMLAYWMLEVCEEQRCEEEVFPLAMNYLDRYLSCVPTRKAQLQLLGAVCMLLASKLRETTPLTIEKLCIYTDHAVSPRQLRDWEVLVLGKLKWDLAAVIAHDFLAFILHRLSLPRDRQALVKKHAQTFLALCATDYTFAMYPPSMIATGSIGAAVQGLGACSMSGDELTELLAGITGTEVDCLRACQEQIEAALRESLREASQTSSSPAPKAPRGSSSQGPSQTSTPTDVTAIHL

Row | IC50 (CDK4/cyclin D3; [1]) [µM] | IC50 (CDK2/cyclin A2; Human CDK2/cyclin A2 inhibitory activity, read-out: CDK2 Activity symbol) [µM] | IC50 (CDK4/cyclin D3; [2]) [µM] | IC50 (CDK2/cyclin A2; [3]) [µM] | SMILES
1 | – | – | < 0.01 | ≥ 0.1 | CC(C)Nc1nc(C(C)O)cc2cnc(Nc3ccc(C4CNCCO4)cn3)nc12 (single isomer, unassigned) [Compound 735]
2 | – | – | < 0.01 | ≥ 0.1 | CC(C)Nc1nc(C(C)O)cc2cnc(Nc3ccc(C4CNCCO4)cn3)nc12 (single isomer, unassigned) [Compound 736]
3 | – | – | < 0.01 | ≥ 0.1 | CC(C)Nc1nc(C(C)O)cc2cnc(Nc3ccc(N4CCNCC4C(F)(F)F)cn3)nc12 (single isomer, unassigned) [Compound 775]
4 | – | – | < 0.01 | ≥ 0.1 | CC(C)Nc1nc(C(C)O)cc2cnc(Nc3ccc(N4CCNCC4C(F)(F)F)cn3)nc12 (single isomer, unassigned) [Compound 776]
5 | – | – | < 0.01 | 0.01 to 0.1 | CC(C)Nc1nc(C(C)O)cc2cnc(Nc3ccc(N4CCN(C(C)CO)CCC4=O)cn3)nc12 (single isomer, unassigned) [Compound 809]
6 | – | – | < 0.01 | ≥ 0.1 | CC(C)Nc1nc(C(C)O)cc2cnc(Nc3ccc(N4CCN(C(C)CO)CCC4=O)cn3)nc12 (single isomer, unassigned) [Compound 810]
7 | – | – | 0.01 to 0.1 | ≥ 0.1 | CC(C)Nc1nc(C(C)O)cc2cnc(Nc3ccc(OC4CCC(C(=O)O)CC4)cn3)nc12 (single isomer, unassigned) [Compound 831]
8 | – | – | 0.01 to 0.1 | ≥ 0.1 | CC(C)Nc1nc(C(C)O)cc2cnc(Nc3ccc(OC4CCC(C(=O)O)CC4)cn3)nc12 (single isomer, unassigned) [Compound 832]
9 | – | – | < 0.01 | ≥ 0.1 | CC(C)Nc1nc(C(C)O)cc2cnc(Nc3ccc(C4COCCN4)cn3)nc12 (single isomer, unassigned) [Compound 865]
10 | – | – | < 0.01 | ≥ 0.1 | CC(C)Nc1nc(C(C)O)cc2cnc(Nc3ccc(C4COCCN4)cn3)nc12 (single isomer, unassigned) [Compound 866]
11 | – | – | < 0.01 | 0.01 to 0.1 | CNCCOc1ccc(Nc2ncc3cc(C(C)O)nc(NC4(C)CCCOC4)c3n2)nc1 (single isomer, unassigned) [Compound 869]
12 | – | – | < 0.01 | ≥ 0.1 | CNCCOc1ccc(Nc2ncc3cc(C(C)O)nc(NC4(C)CCCOC4)c3n2)nc1 (single isomer, unassigned) [Compound 870]
13 | < 0.01 | – | – | – | CC(C)Nc1nc([C@@H](C)O)cc2cnc(Nc3ccc(O[C@H]4CCCNC4)cn3)nc12 [Compound 565]
14 | < 0.01 | – | – | – | CC(C)Nc1nc([C@@H](C)O)cc2cnc(Nc3ccc(OC4CNC4)cn3)nc12 [Compound 568]
15 | < 0.01 | – | – | – | CC(C)Nc1nc([C@@H](C)O)cc2cnc(Nc3ccc(OCC4CNC4)cn3)nc12 [Compound 570]
16 | < 0.01 | – | – | – | CC(C)Nc1nc([C@@H](C)O)cc2cnc(Nc3ccc(O[C@@H]4CCCNC4)cn3)nc12 [Compound 571]
17 | < 0.01 | – | – | – | CC(C)Nc1nc(C(C)O)cc2cnc(Nc3ccc(OC4CNCCC4F)cn3)nc12 (centres unmarked) [Compound 577]
18 | < 0.01 | – | – | – | CC(C)Nc1nc([C@@H](C)O)cc2cnc(Nc3ccc(OCC4(F)CNC4)cn3)nc12 [Compound 578]
19 | 0.01 to 0.1 | – | – | – | CC(C)Nc1nc([C@@H](C)O)cc2cnc(Nc3ccc(SCCN(C)C)cn3)nc12 [Compound 580]
20 | < 0.01 | – | – | – | CC(C)Nc1nc([C@@H](C)O)cc2cnc(Nc3ccc(N4CCN(C(C)CO)CC4=O)cn3)nc12 (some centres unmarked) [Compound 598]
21 | < 0.01 | – | – | – | CC(C)Nc1nc([C@@H](C)O)cc2cnc(Nc3ccc(N4CCN(CC(C)(C)C)CC4=O)cn3)nc12 [Compound 603]
22 | < 0.01 | – | – | – | CC(C)Nc1nc(C(C)O)cc2cnc(Nc3ccc(N4CCC(O)C(F)C4)nn3)nc12 (centres unmarked) [Compound 607]
23 | 0.01 to 0.1 | – | – | – | CC(C)Nc1nc([C@@H](C)O)cc2cnc(Nc3ccc(N4CCNCC4=O)nn3)nc12 [Compound 613]
24 | < 0.01 | – | – | – | CC(C)Nc1nc([C@@H](C)O)cc2cnc(Nc3ccc(N4CCC(O)C(F)(F)C4)nn3)nc12 (some centres unmarked) [Compound 617]
25 | < 0.01 | – | – | – | CC(C)Nc1nc([C@@H](C)O)cc2cnc(Nc3ccc(N4CC5(CNC(=O)C5)C4)nn3)nc12 [Compound 620]
26 | – | – | < 0.01 | – | CC(C)Nc1nc([C@@H](C)O)cc2cnc(Nc3ccc(N4CCC(C)(CO)CC4)nn3)nc12 [Compound 688]
27 | – | – | < 0.01 | – | CC(C)Nc1nc([C@@H](C)O)cc2cnc(Nc3ccc(N4CC(F)(CO)C4)nn3)nc12 [Compound 707]

Second part, the compound before the results:

Row | SMILES | IC50 (CDK4/cyclin D3; [1]) [µM] | IC50 (CDK2/cyclin A2; Human CDK2/cyclin A2 inhibitory activity, read-out: CDK2 Activity symbol) [µM] | IC50 (CDK4/cyclin D3; [2]) [µM] | IC50 (CDK2/cyclin A2; [3]) [µM]
28 | CC(C)Nc1nc(C(C)O)cc2cnc(Nc3ccc(N4CCCC(O)C4)nn3)nc12 (single isomer, unassigned) [Compound 581] | < 0.01 | ≥ 0.1 | – | –
29 | CC(C)Nc1nc(C2CCCO2)cc2cnc(Nc3ccc(N4CCNCC4)nn3)nc12 (single isomer, unassigned) [Compound 713] | – | – | < 0.01 | ≥ 0.1
30 | CC(C)Nc1nc(C2CCCO2)cc2cnc(Nc3ccc(N4CCNCC4)nn3)nc12 (single isomer, unassigned) [Compound 714] | – | – | ≥ 0.1 | ≥ 0.1
31 | CC(C)Nc1nc(C(C)O)cc2cnc(Nc3ccc(N4CCC(O)C5(CC5)C4)nn3)nc12 (single isomer, unassigned) [Compound 724] | – | – | < 0.01 | ≥ 0.1
32 | CC(C)Nc1nc(C(C)O)cc2cnc(Nc3ccc(N4CCC(O)C5(CC5)C4)nn3)nc12 (single isomer, unassigned) [Compound 725] | – | – | < 0.01 | ≥ 0.1
33 | CC(C)Nc1nc(C2CCCO2)cc2cnc(Nc3ccc(CN4CCNCC4)cn3)nc12 (single isomer, unassigned) [Compound 729] | – | – | < 0.01 | ≥ 0.1
34 | CC(C)Nc1nc(C2CCCO2)cc2cnc(Nc3ccc(CN4CCNCC4)cn3)nc12 (single isomer, unassigned) [Compound 730] | – | – | 0.01 to 0.1 | ≥ 0.1
35 | CC(C)Nc1nc(C2CCOC2)cc2cnc(Nc3ccc(N4CCNCC4=O)cn3)nc12 (single isomer, unassigned) [Compound 773] | – | – | < 0.01 | ≥ 0.1
36 | CC(C)Nc1nc(C2CCOC2)cc2cnc(Nc3ccc(N4CCNCC4=O)cn3)nc12 (single isomer, unassigned) [Compound 774] | – | – | 0.01 to 0.1 | ≥ 0.1
37 | CC(C)Nc1nc([C@@H](C)O)cc2cnc(Nc3ccc(N4CCN(CC(C)(C)C)CC4)nn3)nc12 [Compound 587] | < 0.01 | – | – | –
38 | CNC1(C)CCN(c2ccc(Nc3ncc4cc([C@@H](C)OC)nc(NC(C)C)c4n3)nn2)CC1 [Compound 594] | < 0.01 | – | – | –
39 | CO[C@H](C)c1cc2cnc(Nc3ccc(N4CCN(C(C)(C)C)CC4)nn3)nc2c(NC(C)C)n1 [Compound 599] | 0.01 to 0.1 | – | – | –
40 | CC(C)Nc1nc([C@@H](C)O)cc2cnc(Nc3ccc(CC(=O)N4CCN(CCO)CC4)cn3)nc12 [Compound 616] | < 0.01 | – | – | –
41 | CO[C@H](C)c1cc2cnc(Nc3ccc(N4CCN(CCC(=O)O)CC4)nn3)nc2c(NC(C)C)n1 [Compound 684, (R)-3-(4-(6-((8-(isopropylamino)-6-(l-methoxyethyl)pyrido[3,4-d]pyrimidin-2-yl)amino)pyridazin-3-yl)piperazin-1-yl)propanoic acid] | – | – | 0.01 to 0.1 | –
42 | CO[C@H](C)c1cc2cnc(Nc3ccc(CN4CCN(CCC(=O)O)CC4)cn3)nc2c(NC(C)C)n1 [Compound 685] | – | – | 0.01 to 0.1 | –
43 | CC(C)Nc1nc([C@@H](C)O)cc2cnc(Nc3ccc(N4CC5CC(C4)C5O)nn3)nc12 (some centres unmarked) [Compound 687] | – | – | < 0.01 | –
44 | CO[C@H](C)c1cc2cnc(Nc3ccc(CN4CCN(CCCC(=O)O)CC4)cn3)nc2c(NC(C)C)n1 [Compound 697] | – | – | 0.01 to 0.1 | –
45 | CO[C@H](C)c1cc2cnc(Nc3ccc(N4CCN(CCCC(=O)O)CC4)nn3)nc2c(NC(C)C)n1 [Compound 699] | – | – | 0.01 to 0.1 | –
46 | CCCNc1nc([C@@H](C)O)cc2cnc(Nc3ccc(CN4CCCC(O)C4)cn3)nc12 (some centres unmarked) [Compound 1082] | – | – | – | ≥ 0.1
47 | CC(C)Nc1nc([C@@H](C)O)cc2cnc(Nc3ccc(N4CCN(C(=O)C5CCCO5)CC4)nn3)nc12 (some centres unmarked) [Compound 1184] | – | – | – | ≥ 0.1
